The text below walks through data of patent US20170066717A1, “NEW PHENYLAZETIDINECARBOXYLATE OR -CARBOXAMIDE COMPOUNDS” (INVENTIVA, priority 2014, published 2017).

The target of one series is T1, NURR-1/RXRγ (Homo sapiens, UniProt P48443).
T1 construct: expressed in transfected cells; host or cells: Cos-7 cells
Put plainly: Transactivation test, NURR-1-Gal4/RXRγ, luciferase reporter in Cos-7 cells. It is filed as cell-based. The conditions noted are these: for Emax: COS-7, induction level relative to reference XCT0135908 at 2×10^−5 M (=100%), read-out: hNurr1_RXRgFL Emax (%); for EC50: Cos-7 cells, NURR-1-Gal4/RXRγ, luciferase reporter, read-out: hNurr1_RXRgFL EC50.

A short description of series [1]: Plasma pharmacokinetics in mice after oral administration. To be noted: mouse, male C57/Bl6 mice, oral 10 mg/kg; for AUC: sampling 15 min to 7 h, log-linear trapezoidal method, read-out: AUCplasma; for Cmax: suspension in 1% methylcellulose/0.1% Poloxamer 188. The class given is in vivo. As to the method:
(§1) Three series of in vivo tests were carried out with compounds representative of the invention, for the purpose of determining their pharmacokinetic plasma profile and their brain penetration.
1. Study of the Plasma Phannacokinectis in Mice After Oral Administration
Male C57/B16 mice (25-30 g) originating from the establishment Janvier, Le Genest-St-Isle, France were used for this study (9 mice per dose). The animals were fed with standard feed for rodents (Purina Mills, St. Louis, Mo.), placed in cages and subjected to light/darkness cycles of 12 h/12 h, the temperature of the room being maintained at 22±2° C. and the humidity level at 55±10%.
The mice were not deprived food before the administration. Water was provided at will throughout the study. The test compound was admistered orally at 10 mg/kg. For the oral administration at 10 mg/kg, the animals were green, by gavage, 10 mL/kg of a suspension of the test compound, prepared in 1% methylcellulose, 400 cps/0.1% Poloxamer 188/water.
The animals were sacrificed under anesthesia at times 15 min, 30 min, 1 h, 3 h and 7 h after gavage. The blood was collected at each time, and from each animal sacrificed 0.5 mL of blood collected in 1.5 mL tubes containing 20 μL of evaporated anticoagulant (solution of sodium heparinate at 1000 IU/mL) was centrifuged at 4500 g for 3 min in order to obtain approximately 200 μL of plasma. The plasma was divided up into 2 aliquots of 70 μL minimum, which were stoted at −20° C. until they were treated by protein precipitation and then analysis by liquid chromatography coupled to tandem mass spectrometry (LC-MS/MS) in order to quantify the compound tested.
The pharmacokinetic plasma parameters in the mice after oral administration were determined using a non-compartmental approach with the Phoenix WinNonLin software. The area under the curve (AUC0-1) was determined bv the log-linear trapezoidal method. The tesults are brought together in the following table.

The test system of series [2] is dopaminergic neurons of primary culture of rat embryo mesencephalon treated with MPP+. In words: Neuroprotection in primary culture of rat embryo mesencephalon treated with MPP+ (count of tyrosine hydroxylase expressing cells). The class given is cell-based. To be noted: recombinant human BDNF 10 ng/mL = 100%, 2 days with MPP+. As to the method: Another in vitro test was carried out with the compounds according to the invention, for the purpose of verifying that the molecules indeed have the expected neuroprotective effect in vitro.
The compounds were tested in a model of primary culture of rat embryo mesencephalon treated with 1-methyl-4-phenylpyridinium (MPP+), which is the active metabolite of 1-methyl-4-phenyl-1,2,3,6-tetrahydropyridine (MPTP). MPP+ enters into dopananergic neurons via the dopamine transporter and causes the death of these dopaminergic neurons. The following protocol was used.
Gestating female rats (15 days of gestation) were euthanized and the rat embryos were removed. The mesencephalons were removed. The tissue was then dissociated mechanically and by using trypsin. The cells collected after centrifugation were distributed into 96-well plates and left to stand for 5 days. The culture conditions made it possible to obtain a cell layer composed of neurons (dopaminergic and others) and astrocytes. On the 6th day, the cells were optionally treated with MPP+ in the presence or absence of test compound. After 2 days of incubation, the cells were fixed and various cell labellings were carried out; staining of the nuclei with the Hoechst fluorescent label and immunolabelling of tyrosine hydroxylase. The cells expressing tyrosine hydroxylase were counted using an image analyzer coupled to an optical microscope.
Recombinant human BDNF trophic factor (10 ng/mL) was used as reference. The activities of the compounds are given as percentages of activity relative to the BDNF reference, the activity of which is arbitrarily defined as being equal to 100%.

Series [3] can be described thus: Brain penetration in rats after intravenous administration. The class given is in vivo. The conditions noted are these: rat; for Kp at 4 h: male, Wistar, intravenous, 4 mg/kg, ratio of Cmax brain to Cmax plasma after the 4 hours of infusion, rats, read-out: Kp (partition coefficient between the brain and the plasma); for Cmax at 4 h: male Wistar rats, 4 mg/kg iv infusion into the jugular vein for 4 hours, plasma at end of infusion. How it is done: as §1
2. Study of the Brain Penetration in Rats After Intravenous Administration
Male Wistar rats (250-300 g) originating from the establishment Janvier, Le Genest-St-Isle, France were used for this study (4 rats per study). The animals were fed with standard feed for rodents (Purina Mills, St. Louis, Mo.), placed in cages and subjected to light/darkness cycles of 12 h/12 h, the room temperature being maintained at 22±2° C. and the humidity level at 55±10%. The rats were not deprived food before the administration. Water was provided at will throughout the study.
The test compound was administered intravenously at 4 mg/kg by infusion into the jugular vein for 4 hours. For the intravenous administration, the animals were infused with 12 mL/kg of a solution of the test compound, prepared in 2% Cremophor EL/0.9% NaCl.
The animals were sacrificed under anesthesia after 4 hours of infusion. The blood and the brain were collected from each sacrificed animal 0.5 mL of blood collected in 1.5 mL tubes containing 20 μL of evaporated anticoagulant (solution of sodium heparinate at 1000 IU/mL) was centrifuged at 4500 g for 3 min in order to obtain approximately 200 μL of plasma. The plasma was divided up into 2 aliquots of 70 μL minimum, which were stored at −20° C. until they were treated by protein precipitation and then analysis by liquid chromatography coupled to tandem mass spectrometry (LC-MS/MS) in order to quantify the compound tested.
The brains were immersed in liquid nitrogen directly after they were removed, then stored at −20° C. for analysis. The brains were then ground in the presence of an aqueous/organic solvent mixture in order to obtain a homogenate. These homogenates were then centrifuged and the compound tested was extracted from the supernatant obtained, by liquid-liquid extraction, and then quantified by LC-MS/MS.
The brain penetration in the rats is represented by the Kp, which is the partition coefficient between the brain and the plasma. It is calculated by the ratio of the concentration measured in the brain (Cmax brain) and the plasma (Cmax plasma) after the 4 hours of infusion.

Another series concerns the target T2, NURR-1/RXRα (Homo sapiens, UniProt P19793).
T2 construct: expressed in transfected cells; host or cells: Cos-7 cells
Put plainly: Transactivation test, NURR-1-Gal4/RXRα, luciferase reporter in Cos-7 cells. The class given is cell-based. The conditions noted are these: for Emax: COS-7, induction level relative to reference XCT0135908 at 2×10^−5 M (=100%), read-out: hNurr1_RXRaFL Emax (%); for EC50: Cos-7 cells, NURR-1-Gal4/RXRα, luciferase reporter, read-out: hNurr1_RXRaFL EC50.

T2 sequence (P19793 whole entry): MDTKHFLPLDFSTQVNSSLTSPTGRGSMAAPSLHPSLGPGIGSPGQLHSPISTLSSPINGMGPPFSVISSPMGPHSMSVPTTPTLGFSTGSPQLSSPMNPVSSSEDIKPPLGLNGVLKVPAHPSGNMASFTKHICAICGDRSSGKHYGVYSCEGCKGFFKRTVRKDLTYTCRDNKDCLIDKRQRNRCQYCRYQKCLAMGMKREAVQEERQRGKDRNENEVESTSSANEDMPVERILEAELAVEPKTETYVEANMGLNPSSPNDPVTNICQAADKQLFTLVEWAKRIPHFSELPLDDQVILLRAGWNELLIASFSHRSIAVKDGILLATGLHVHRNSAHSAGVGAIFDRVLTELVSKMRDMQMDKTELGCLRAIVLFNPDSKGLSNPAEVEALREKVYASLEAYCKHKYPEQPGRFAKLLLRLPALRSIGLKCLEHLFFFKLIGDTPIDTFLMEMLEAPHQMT
T2 sequence (P43354 whole entry partner): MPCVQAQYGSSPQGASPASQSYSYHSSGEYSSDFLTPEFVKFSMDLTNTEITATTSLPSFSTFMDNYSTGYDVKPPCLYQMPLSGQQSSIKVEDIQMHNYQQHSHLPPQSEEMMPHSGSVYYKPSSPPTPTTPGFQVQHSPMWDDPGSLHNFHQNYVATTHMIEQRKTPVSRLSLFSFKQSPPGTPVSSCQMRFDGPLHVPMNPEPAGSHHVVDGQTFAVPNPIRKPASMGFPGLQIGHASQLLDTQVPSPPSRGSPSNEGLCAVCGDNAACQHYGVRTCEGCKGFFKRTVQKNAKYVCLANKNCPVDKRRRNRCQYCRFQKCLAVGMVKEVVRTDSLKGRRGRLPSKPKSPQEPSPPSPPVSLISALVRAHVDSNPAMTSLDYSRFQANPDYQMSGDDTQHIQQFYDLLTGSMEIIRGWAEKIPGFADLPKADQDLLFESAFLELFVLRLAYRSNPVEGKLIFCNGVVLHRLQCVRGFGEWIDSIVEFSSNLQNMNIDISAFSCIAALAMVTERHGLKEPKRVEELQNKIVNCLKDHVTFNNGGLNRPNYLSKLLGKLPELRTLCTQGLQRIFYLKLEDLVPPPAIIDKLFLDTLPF
T2 sequence (P04386 1-147 partner limits assumed): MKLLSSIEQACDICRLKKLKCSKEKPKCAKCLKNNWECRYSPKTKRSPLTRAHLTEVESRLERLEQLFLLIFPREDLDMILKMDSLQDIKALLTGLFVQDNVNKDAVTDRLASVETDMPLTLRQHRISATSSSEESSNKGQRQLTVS
T1 sequence (P48443 whole entry): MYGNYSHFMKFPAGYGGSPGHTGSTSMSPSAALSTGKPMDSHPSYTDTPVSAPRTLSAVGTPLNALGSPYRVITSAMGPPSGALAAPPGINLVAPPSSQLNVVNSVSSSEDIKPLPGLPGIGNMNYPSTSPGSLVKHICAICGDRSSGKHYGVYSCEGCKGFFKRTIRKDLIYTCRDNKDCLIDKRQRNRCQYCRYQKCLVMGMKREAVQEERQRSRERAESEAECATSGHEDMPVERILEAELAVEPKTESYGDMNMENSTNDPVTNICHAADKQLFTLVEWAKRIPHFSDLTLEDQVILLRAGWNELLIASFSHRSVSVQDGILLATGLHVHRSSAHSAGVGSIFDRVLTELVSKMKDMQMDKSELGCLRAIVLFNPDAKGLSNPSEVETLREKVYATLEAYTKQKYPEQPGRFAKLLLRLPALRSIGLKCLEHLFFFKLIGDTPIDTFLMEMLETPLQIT
T1 sequence (P43354 whole entry partner): as the sequence (P43354 whole entry partner) above
T1 sequence (P04386 1-147 partner limits assumed): as the sequence (P04386 1-147 partner limits assumed) above

Turning to `Cc1cc(-c2cc(C(C)(C)C)cc(C(C)(C)C)c2)cc(N2CC(C(=O)O)C2)c1` [Example 7, 1-[3-(3,5-di-tertbutylphenyl)-5-methylphenyl]azetidine-3-carboxylic acid], on NURR-1/RXRγ, the Emax worked out at 97% and the EC50 came out at 6 nM. Besides, in series [1], the AUC amounted to 48600 ng·h/mL and the Cmax was found to be 12800 ng/mL. Also, the “percentage of activity relative to the BDNF reference” value in series [2] (compound 1 μM) was found to be 61%. In series [2] (compound 10 μM), the “percentage of activity relative to the BDNF reference” value was determined as 72%. Besides, in series [3], the Kp at 4 h stood at 0.76 and the Cmax at 4 h worked out at 6750 ng/mL. Further, at NURR-1/RXRα, the Emax worked out at 100% and the EC50 stood at 4 nM.
Take `CC1(C)CNc2c(cc(C(C)(C)C)cc2-c2cccc(N3CC(C(=O)[O-])C3)c2)O1.[Na+]` [Example 187, sodium 1-[3-(7-tert-butyl-2,2-dimethyl-3,4-dihydro-1,4-benzoxazin-5-yl)phenyl]azetidine-3-carboxylate]: the melting point was 205 to 213 °C. On NURR-1/RXRγ, the Emax turned out to be 80% and the EC50 stood at 23 nM. In series [1], the AUC came out at 5190 ng·h/mL and the Cmax stood at 2740 ng/mL. In series [3], the Kp at 4 h was 1.27 and the Cmax at 4 h came out at 1360 ng/mL. At NURR-1/RXRα, the Emax came to 91% and the EC50 came out at 5 nM.
`CC(C)c1cc2c(c(-c3cccc(N4CC(C(=O)[O-])C4)c3)c1)NCC1(CCC1)O2.[Na+]` [Example 196, sodium 1-[3-(7-isopropylspiro[3,4-dihydro-1,4-benzoxazine-2,1′-cyclobutane]-5-yl)phenyl]azetidine-3-carboxylate] registered a melting point of 143 to 154 °C. Besides, at NURR-1/RXRγ, the Emax was 86% and the concentration for a half-maximal effect (EC50) turned out to be 42 nM. In series [1], the AUC was determined as 34100 ng·h/mL and the Cmax stood at 14100 ng/mL. Moreover, in series [3], the Kp at 4 h amounted to 0.44 and the peak level (Cmax at 4 h) was 1920 ng/mL. At NURR-1/RXRα, the Emax came out at 98% and the EC50 is 11 nM.
`CC(C)c1cc2c(c(-c3cccc(N4CC(C(=O)O)C4)c3)c1)NCCC2` [Example 199, 1-[3-(6-isopropyl-1,2,3,4-tetrahydroquinolin-8-yl)phenyl]azetidine-3-carboxylic acid]: the melting point was 77 to 79 °C. On NURR-1/RXRγ, the Emax was found to be 117% and the EC50 is 95 nM. Moreover, in series [1], the AUC stood at 19000 ng·h/mL and the highest level (Cmax) was 17500 ng/mL. In series [3], the Kp at 4 h was 0.28 and the Cmax at 4 h amounted to 4920 ng/mL. Moreover, on NURR-1/RXRα, the Emax was 103% and the EC50 was 24 nM.
`CC(C)c1cc2c(c(-c3cccc(N4CC(C(=O)O)C4)c3)c1)NCCC(C)(C)O2` [Example 200, 1-[3-(8-isopropyl-2,2-dimethyl-4,5-dihydro-3H-1,5-benzoxazepin-6-yl)phenyl]azetidine-3-carboxylic acid] returned a melting point of 74 to 79 °C. At NURR-1/RXRγ, the Emax stood at 78% and the EC50 amounted to 244 nM. In series [1], the AUC amounted to 2920 ng·h/mL and the Cmax is 3800 ng/mL. In addition, in series [3], the Kp at 4 h is 0.19 and the highest level (Cmax at 4 h) was 1010 ng/mL. Besides, at NURR-1/RXRα, the Emax worked out at 95% and the concentration for a half-maximal effect (EC50) turned out to be 127 nM.
With `CC1(C)CN(c2cccc(N3CC(C(=O)[O-])C3)c2)c2ccc(C(C)(C)C)cc2O1.[Na+]` [Example 225, sodium 1-[3-(7-tert-butyl-2,2-dimethyl-3-H-1,4-benzoxazin-4-yl)phenyl]azetidine-3-carboxylate], the melting point fell in the range of 223 to 227 °C. Also, on NURR-1/RXRγ, the Emax came to 122% and the EC50 amounted to 173 nM. In addition, in series [1], the AUC was found to be 13700 ng·h/mL and the concentration peaked (Cmax) at 6430 ng/mL. In series [3], the concentration ratio (Kp) at 4 h turned out to be 0.42 and the concentration peaked (Cmax at 4 h) at 3260 ng/mL. At NURR-1/RXRα, the Emax was found to be 113% and the EC50 was 79 nM.
For `CC(C)c1ccc2c(c1)OC(C)(C)CN2c1cccc(N2CC(C(=O)O)C2)c1` [Example 228, 1-[3-(7-isopropyl-2,2 dimethyl-3H-1,4-benzoxazin-4-yl)phenyl]azetidine-3-carboxylic acid], the melting point lay within 64 to 70 °C. Moreover, on NURR-1/RXRγ, the Emax was 112% and the EC50 stood at 147 nM. For the same compound, in series [1], the AUC was 15500 ng·h/mL and the Cmax amounted to 6970 ng/mL. Also, in series [3], the Kp at 4 h amounted to 0.29 and the peak level (Cmax at 4 h) was 2160 ng/mL. For the same compound, at NURR-1/RXRα, the Emax was 111% and the EC50 was found to be 97 nM.
`CC1(C)C=C(c2cccc(N3CC(C(=O)[O-])C3)c2)c2ccc(C(F)(F)F)cc2O1.[Na+]` [Example 263, sodium 1-[3-[2,2-dimethyl-7-(trifluoromethyl)chromen-4-yl]phenyl]azetidine-3-carboxylate]: the melting point lay in the range of 172 to 195 °C. Besides, on NURR-1/RXRγ, the Emax was determined as 99% and the EC50 turned out to be 2 nM. In series [1], the AUC came to 33700 ng·h/mL and the highest level (Cmax) was 7560 ng/mL. Also, in series [3], the Kp at 4 h was found to be 0.36 and the peak level (Cmax at 4 h) was 7660 ng/mL. In addition, on NURR-1/RXRα, the Emax was determined as 113% and the EC50 was found to be 0.81 nM.
`CC1(C)CN(c2cccc(N3CC(C(N)=O)C3)c2)c2ccc(C(F)(F)F)cc2O1` [Example 273, 1-[3-[2,2-dimethyl-7-(trifluoromethyl)-3H-1,4-benzoxazin-4-yl]phenyl]azetidine-3-carboxamide] showed a melting point of 100 °C. Also, on NURR-1/RXRγ, the Emax came out at 123% and the EC50 was 12 nM. Further, in series [1], the AUC came out at 372 ng·h/mL and the Cmax was determined as 584 ng/mL. Further, in series [3], the Kp at 4 h turned out to be 1.81 and the Cmax at 4 h was determined as 98 ng/mL. Moreover, at NURR-1/RXRα, the Emax was found to be 110% and the EC50 is 6 nM.
